The source of these data is ChEMBL document CHEMBL1201862, “PubChem BioAssay data set” (2004).

Some test systems named below: DLD-1; DMS-114; DMS-273; LXFL 529; HOP-18; M19-MEL; SNB-78; XF498; RXF 631.
Holding throughout (assay): NCI anticancer screen, dose series, 48 h

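Step 1: Grow cells in 96-well plates. Step 2: Expose to compound for 48 hours at 5 concentrations. Step 3: Interpolate endpoints linearly; if unreached, use highest concentration. Here, GI50 denotes the concentration required for 50% inhibition of growth.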 The source made the active and inactive calls. Cut-off read from the data, not from the text of the source: active = GI50 up to about 1.1 µM and inactive = higher. Some results are limits rather than exact numbers.

Consider `Cc1cc(O)c2c(c1)OC1(C)CCC3C(C)(C)CCCC34COC2C14` (configuration not stated), for which the GI50 with DLD-1 is 20.4 µM (inactive); in the experiment with DMS-114 it was 13.9 µM (inactive); with DMS-273, 14 µM (inactive); in the experiment with LXFL 529, 15 µM (inactive).
Consider `C=C1CC2(OC1=O)c1ccccc1CCc1ccccc12`, for which the GI50 is 1.83 µM (inactive) in the experiment on DLD-1; 1.85 µM (inactive) in the experiment on DMS-114; 3.49 µM (inactive) in the experiment on DMS-273; 1.97 µM (inactive) in the experiment with HOP-18; 1.7 µM (inactive) in the experiment on LXFL 529; 1.83 µM (inactive) in the experiment with M19-MEL. The GI50 is 2.18 µM (inactive) in the experiment with SNB-78 and 2.41 µM (inactive) with XF498.
Turning to `CCC(C)C(N)C(=O)NC(CC(N)=O)C(=O)NC(CC(C)C)C(=O)NC(CCCCN)C(=O)NC(C)C(=O)NC(CC(C)C)C(=O)NC(C)C(=O)NC(C)C(=O)NC(CC(C)C)C(=O)NC(C)C(=O)NC(CCCCN)C(=O)NC(CCCCN)C(=O)NC(C(=O)NC(CC(C)C)C(N)=O)C(C)CC` (configuration not stated), the GI50 was 10.4 µM (inactive) with DLD-1; 14.1 µM (inactive) in the experiment on DMS-114; 7.43 µM (inactive) in the experiment with DMS-273; 7.01 µM (inactive) in the experiment with HOP-18; 14.9 µM (inactive) in the experiment with LXFL 529; 10.1 µM (inactive) in the experiment with M19-MEL. The GI50 in the experiment with RXF 631 is 7.82 µM (inactive); in the experiment with SNB-78, 11.3 µM (inactive).
Turning to `COc1ccc(-c2cc(-c3cc(C)ccc3O)nc(O)n2)cc1`, the GI50 in the experiment with DLD-1 was > 100 µM (inactive); with DMS-114, 81.8 µM (inactive); in the experiment with DMS-273, 50.8 µM (inactive); in the experiment on HOP-18, > 100 µM (inactive); with LXFL 529 it was 64 µM (inactive); in the experiment with M19-MEL it was > 100 µM (inactive). The GI50 is > 100 µM (inactive) with RXF 631 and 43.7 µM (inactive) with SNB-78.
As to `Cn1cnc([N+](=O)[O-])c1Sc1nccn1-c1ccccc1`, the GI50 is 33.3 µM (inactive) with DLD-1; 29.4 µM (inactive) in the experiment on DMS-114; 63.5 µM (inactive) with DMS-273; 8.85 µM (inactive) in the experiment with HOP-18; 51.8 µM (inactive) in the experiment with M19-MEL; 26.3 µM (inactive) with SNB-78. In addition, the GI50 with XF498 is 31.1 µM (inactive).
Turning to `Cc1cc2nc3c(C(OC4OC(CO)C(O)C(O)C4O)C(O)CO)nn(-c4ccccc4)c3nc2cc1C` (configuration not stated), the GI50 with DLD-1, in the experiment with DMS-114, in the experiment on SNB-78 and with XF498 was > 100 µM (inactive) each time.
For `Cc1ccnc(NS(=O)(=O)c2ccc(NC3=CC(=O)C(=O)c4ccccc43)cc2)n1`, the GI50 in the experiment on DLD-1, with DMS-114, in the experiment on DMS-273, in the experiment on HOP-18, in the experiment with LXFL 529 and in the experiment on M19-MEL was > 100 µM (inactive) in each case. Also, the GI50 with RXF 631, in the experiment on SNB-78 and with XF498 was > 100 µM (inactive) each time.
With `CCC(C)(C)NS(=O)(=O)c1ccccc1`, the GI50 with DLD-1, in the experiment on DMS-114, in the experiment on DMS-273, in the experiment on LXFL 529, in the experiment on M19-MEL and with SNB-78 was > 100 µM (inactive) in each case. In addition, the GI50 in the experiment with XF498 is > 100 µM (inactive).
Consider `N#C/C(c1nc2ccccc2[nH]1)=c1\s/c(=C/c2ccccc2)c(=O)n1-c1ccccc1`, for which the GI50 with DLD-1 is > 100 µM (inactive); in the experiment on DMS-114, > 100 µM (inactive); with DMS-273, > 100 µM (inactive); in the experiment with LXFL 529, 96.2 µM (inactive); in the experiment on M19-MEL, > 100 µM (inactive); with XF498 it was 60.8 µM (inactive).
As for `O=C(CSc1nnc(Cc2ccccc2)o1)Nc1ccccc1Cl`, the GI50 in the experiment with DLD-1, in the experiment on DMS-114, with DMS-273, with HOP-18, in the experiment on LXFL 529 and with M19-MEL was > 100 µM (inactive) in each case. The GI50 in the experiment on SNB-78 was > 100 µM (inactive).
For `NC(=S)NNC(=O)/C(=C/c1ccc(/C=C(\NC(=O)c2ccccc2)C(=O)NNC(N)=S)cc1)NC(=O)c1ccccc1`, the GI50 is > 63.7 µM (inactive) with DLD-1; > 71.8 µM (inactive) in the experiment with DMS-114; > 100 µM (inactive) in the experiment on DMS-273; > 100 µM (inactive) with HOP-18; 80 µM (inactive) in the experiment with LXFL 529; 72.8 µM (inactive) with M19-MEL. For the same compound, the GI50 in the experiment with SNB-78 is 53.3 µM (inactive); with XF498, 70 µM (inactive).
Turning to `CCCCCCCCCCNC(=S)OCCCC`, the GI50 in the experiment on DLD-1 was 27.2 µM (inactive); in the experiment on DMS-114, 22.9 µM (inactive); in the experiment on DMS-273, 20.3 µM (inactive); with HOP-18, 26.9 µM (inactive); with LXFL 529 it was 22.9 µM (inactive); with M19-MEL, 35.3 µM (inactive). In addition, the values for the GI50 in the experiment with RXF 631, with SNB-78 and with XF498 were 26.4 µM (inactive), 35.3 µM (inactive) and 20.1 µM (inactive), respectively.
For `CN(C)C(=S)/N=c1\ss/c(=N/c2ccccc2)n1C`, the GI50 in the experiment on DLD-1 was > 100 µM (inactive); in the experiment with DMS-114 it was 77.1 µM (inactive); in the experiment on DMS-273 it was > 100 µM (inactive); with HOP-18, > 100 µM (inactive); in the experiment with LXFL 529, > 100 µM (inactive); in the experiment with M19-MEL, > 100 µM (inactive). The GI50 was 44.6 µM (inactive) in the experiment with RXF 631 and 32.4 µM (inactive) in the experiment on SNB-78.
Regarding `CC(=O)Oc1cc(C)c2c(c1OC(C)=O)CC1(O2)[C@@H](C)CCC2[C@@]3(C)CC[C@H](OC(C)=O)C(C)(C)C3CC[C@]21C` (some centres not stated), the GI50 is 3.42 µM (inactive) in the experiment on DLD-1; 2.29 µM (inactive) in the experiment with DMS-114; 2.25 µM (inactive) with DMS-273; 2.64 µM (inactive) with HOP-18; 4.62 µM (inactive) in the experiment on LXFL 529; 2.02 µM (inactive) in the experiment with M19-MEL. In addition, the GI50 with RXF 631 was 5.4 µM (inactive); with SNB-78, 2.24 µM (inactive).
Turning to `CCCCCCCC(CC(=O)NC(CO)C(=O)NC(CO)CC(C)C)OC(=O)CC(CCCCCCC)OC(=O)CC(CCCCCCC)OC1OC(C)C(O)C(OC2OC(C)C(O)C(O)C2O)C1O` (configuration not stated), the GI50 with DLD-1 was 16 µM (inactive); in the experiment with DMS-114 it was 3.83 µM (inactive); with DMS-273, 10.9 µM (inactive); with HOP-18, 17.6 µM (inactive); in the experiment on LXFL 529, 4.84 µM (inactive); with M19-MEL, 10.4 µM (inactive). The GI50 in the experiment with SNB-78 is 20.2 µM (inactive).
`C[Si](C)(C)OC1(C#N)C2C3CC4C2C(=O)C2C4C3C21` (configuration not stated): the GI50 in the experiment on DLD-1, in the experiment on DMS-114, with DMS-273, with HOP-18, with LXFL 529 and in the experiment on M19-MEL was > 100 µM (inactive) each time. In the experiment with SNB-78, the GI50 was > 100 µM (inactive).
Take `O=C(Nc1nc2ccccc2n1Cc1ccc(Cl)cc1)NC12CC3CC(CC(C3)C1)C2`: the GI50 is 36.2 µM (inactive) with DLD-1; 24.3 µM (inactive) with DMS-114; 13.8 µM (inactive) in the experiment with DMS-273; 27.6 µM (inactive) with HOP-18; 20.3 µM (inactive) with LXFL 529; 39.4 µM (inactive) with M19-MEL. In the experiment on XF498, the GI50 is 13.4 µM (inactive).
As for `N#C/N=C(\NCCc1c[nH]c2ccccc12)NCc1ccccc1`, the GI50 in the experiment on DLD-1 is 94.8 µM (inactive); in the experiment with DMS-114 it was 32.9 µM (inactive); in the experiment on DMS-273, 69.2 µM (inactive); in the experiment on LXFL 529, 48.2 µM (inactive); in the experiment on M19-MEL, 81.3 µM (inactive); in the experiment on SNB-78 it was > 100 µM (inactive). Further, in the experiment with XF498, the GI50 is 29.6 µM (inactive).
As for `CSC1(C)CC2C(CC1N1CCOCC1)C2(C)C` (configuration not stated), the GI50 in the experiment on DLD-1, in the experiment with DMS-114, in the experiment with DMS-273, with HOP-18, with LXFL 529 and in the experiment with M19-MEL was > 100 µM (inactive) each time. Also, the GI50 with SNB-78 and in the experiment on XF498 was > 100 µM (inactive) each time.
For the compound `CC(C)CCC[C@@H](C)C1CCC2[C@@H]3CC=C4C[C@@H](C(=O)NCCN(C)C)CC[C@]4(C)C3CC[C@@]21C` (some centres not stated), the GI50 is 36.1 µM (inactive) in the experiment with DLD-1; 14.8 µM (inactive) in the experiment on DMS-114; 24.4 µM (inactive) with DMS-273; 22.4 µM (inactive) in the experiment on HOP-18; 13.9 µM (inactive) in the experiment with LXFL 529; 19.7 µM (inactive) in the experiment on M19-MEL. The GI50 in the experiment with SNB-78 was > 100 µM (inactive); in the experiment on XF498, 8.11 µM (inactive).
Turning to `O=c1c(O)cccn1C1OC(CO)C(O)C1O` (configuration not stated), the GI50 in the experiment with DLD-1, with DMS-114, in the experiment on DMS-273, with HOP-18, in the experiment on LXFL 529 and in the experiment on RXF 631 was > 100 µM (inactive) each time. Besides, the GI50 in the experiment on SNB-78 was > 100 µM (inactive).
With `CC(=O)OC1CC2C(C)(C)C(=O)C=C[C@]2(C)C2CCC3(C)C(c4ccoc4)C(=O)[C@H]4O[C@]43[C@]12C` (some centres not stated), the GI50 in the experiment with DLD-1 is 13.6 µM (inactive); with DMS-114 it was > 100 µM (inactive); in the experiment on LXFL 529, 33.7 µM (inactive); in the experiment on M19-MEL it was 20.4 µM (inactive); with SNB-78, 57.8 µM (inactive).
With `C=CCOc1cc2c(cc1C(C)c1ccc(OC)cc1)OCO2` (configuration not stated), the GI50 was 0.533 µM (active) in the experiment on DLD-1; 0.289 µM (active) in the experiment on DMS-114; 0.421 µM (active) in the experiment with DMS-273; 0.718 µM (active) in the experiment on LXFL 529; 0.718 µM (active) in the experiment with M19-MEL; 1.46 µM (inactive) in the experiment on SNB-78. Further, the GI50 in the experiment on XF498 is 0.287 µM (active).
As for `C[C@]12C=CC(=O)C=C1CC[C@H]1[C@@H]3C[C@@H](O)[C@](O)(C(=O)CO)[C@@]3(C)C[C@H](O)[C@@]12F` [TRIAMCINOLONE], the GI50 with DLD-1, in the experiment on DMS-114, in the experiment on DMS-273, in the experiment on LXFL 529, in the experiment with M19-MEL and in the experiment on RXF 631 was > 100 µM (inactive) throughout. The GI50 in the experiment with SNB-78 and in the experiment on XF498 was > 100 µM (inactive) each time.
